Test results published in publication PMC5218480 (PLoS ONE, 2017).

Test system: MV-4-11 cells
Assay: Gene expression microarray analysis (Affymetrix PrimeView) and GSEA
Type: cell-based, human
Set-up: RFU PODN (11730768_x_at) / Fold change /veh PODN (11730768_x_at) / RFU LINC00158 (11744669_a_at) / Fold change /veh LINC00158 (11744669_a_at) / RFU DUSP10 (11751237_a_at) / Fold change /veh DUSP10 (11751237_a_at) / RFU ID3 (11757404_x_at) / Fold change /veh ID3 (11757404_x_at) / RFU PLEKHG5 (11737974_s_at) / Fold change /veh PLEKHG5 (11737974_s_at) / RFU LRRC4B (11730491_at) / Fold change /veh LRRC4B (11730491_at) / RFU GIMAP4 (11747438_a_at) / Fold change /veh GIMAP4 (11747438_a_at) / RFU KRT8 (11758183_x_at) / Fold change /veh KRT8 (11758183_x_at) / RFU CNN1 (11734310_a_at) / Fold change /veh CNN1 (11734310_a_at) / RFU VPS37D (11726825_at) / Fold change /veh VPS37D (11726825_at) / RFU C10orf10 (11716522_x_at) / Fold change /veh C10orf10 (11716522_x_at) / RFU KIR2DL2 /// KIR2DL4 /// KIR2DL5A /// KIR2DL5B /// KIR2DS1 /// KIR2DS2 /// KIR2DS3 /// KIR2DS4 /// KIR3DL3 /// KIR3DL3 /// KIR3DS1 (11738374_at) / Fold change /veh KIR2DL2 /// KIR2DL4 /// KIR2DL5A /// KIR2DL5B /// KIR2DS1 /// KIR2DS2 /// KIR2DS3 /// KIR2DS4 /// KIR3DL3 /// KIR3DL3 /// KIR3DS1 (11738374_at) / RFU C1QL1 (11718748_at) / Fold change /veh C1QL1 (11718748_at) / RFU TMPRSS4 (11747572_a_at) / Fold change /veh TMPRSS4 (11747572_a_at) / RFU HAMP (11756126_x_at) / Fold change /veh HAMP (11756126_x_at) / RFU RNFT2 (11725882_a_at) / Fold change /veh RNFT2 (11725882_a_at) / RFU NR4A2 (11747474_a_at) / Fold change /veh NR4A2 (11747474_a_at) / RFU ABCC12 (11746883_a_at) / Fold change /veh ABCC12 (11746883_a_at) / RFU TMEM136 (11760407_x_at) / Fold change /veh TMEM136 (11760407_x_at) / RFU CLDN22 /// WWC2 (11732394_at) / Fold change /veh CLDN22 /// WWC2 (11732394_at) / RFU HLA-DPB1 (11760878_x_at) / Fold change /veh HLA-DPB1 (11760878_x_at) / RFU SPINT1 (11716480_a_at) / Fold change /veh SPINT1 (11716480_a_at) / RFU GAP43 (11754022_s_at) / Fold change /veh GAP43 (11754022_s_at) / RFU A4GNT (11735810_at) / Fold change /veh A4GNT (11735810_at) / RFU PRB3 (11715151_x_at) / Fold change /veh PRB3 (11715151_x_at) / RFU TUBB4B (11761932_at) / Fold change /veh TUBB4B (11761932_at) / RFU CAPN14 (11732068_a_at) / Fold change /veh CAPN14 (11732068_a_at) / RFU TMCC2 (11721928_a_at) / Fold change /veh TMCC2 (11721928_a_at) / RFU IRGQ (11745062_a_at) / Fold change /veh IRGQ (11745062_a_at) / RFU FAM174B (11720279_a_at) / Fold change /veh FAM174B (11720279_a_at) / RFU TMPRSS4 (11748680_a_at) / Fold change /veh TMPRSS4 (11748680_a_at) / RFU FAM212B (11763350_a_at) / Fold change /veh FAM212B (11763350_a_at) / RFU PLEKHG5 (11743358_a_at) / Fold change /veh PLEKHG5 (11743358_a_at) / RFU ZSCAN30 (11745921_a_at) / Fold change /veh ZSCAN30 (11745921_a_at) / RFU CMKLR1 (11741424_a_at) / Fold change /veh CMKLR1 (11741424_a_at) / RFU LOC101060620 /// MAPK8IP1 (11723275_at) / Fold change /veh LOC101060620 /// MAPK8IP1 (11723275_at) / RFU SPTSSB (11747773_x_at) / Fold change /veh SPTSSB (11747773_x_at) / RFU PRSS12 (11739890_at) / Fold change /veh PRSS12 (11739890_at) / RFU BIN1 (11741810_x_at) / Fold change /veh BIN1 (11741810_x_at) / RFU WNT11 (11732464_a_at) / Fold change /veh WNT11 (11732464_a_at) / RFU C10orf10 (11716521_a_at) / Fold change /veh C10orf10 (11716521_a_at) / RFU C5orf56 (11738089_at) / Fold change /veh C5orf56 (11738089_at) / RFU CYB561 (11721691_x_at) / Fold change /veh CYB561 (11721691_x_at) / RFU ANKRD19P (11752326_a_at) / Fold change /veh ANKRD19P (11752326_a_at) / RFU OR2T12 /// OR2T33 /// OR2T8 (11738714_s_at) / Fold change /veh OR2T12 /// OR2T33 /// OR2T8 (11738714_s_at) / RFU VCAN (11748164_a_at) / Fold change /veh VCAN (11748164_a_at) / RFU JSRP1 (11732532_at) / Fold change /veh JSRP1 (11732532_at) / RFU KRTAP10-11 (11738290_x_at) / Fold change /veh KRTAP10-11 (11738290_x_at) / RFU MYO3A (11730013_a_at) / Fold change /veh MYO3A (11730013_a_at) / RFU EBF3 (11725865_a_at) / Fold change /veh EBF3 (11725865_a_at) / RFU CAMK2N1 (11719241_x_at) / Fold change /veh CAMK2N1 (11719241_x_at) / RFU C5orf56 (11738088_a_at) / Fold change /veh C5orf56 (11738088_a_at) / RFU OLFML3 (11715873_a_at) / Fold change /veh OLFML3 (11715873_a_at) / RFU LOC100653217 /// NTM (11731650_a_at) / Fold change /veh LOC100653217 /// NTM (11731650_a_at) / RFU MAPK11 (11762145_a_at) / Fold change /veh MAPK11 (11762145_a_at) / RFU FIZ1 (11724087_x_at) / Fold change /veh FIZ1 (11724087_x_at) / RFU OASL (11726364_x_at) / Fold change /veh OASL (11726364_x_at) / RFU SOX15 (11748057_x_at) / Fold change /veh SOX15 (11748057_x_at) / RFU CD79A (11719716_a_at) / Fold change /veh CD79A (11719716_a_at) / RFU HIST1H1D (11736915_at) / Fold change /veh HIST1H1D (11736915_at) / RFU CASKIN2 (11723855_a_at) / Fold change /veh CASKIN2 (11723855_a_at) / RFU LOC730098 (11760151_x_at) / Fold change /veh LOC730098 (11760151_x_at) / RFU OR4N2 (11742367_at) / Fold change /veh OR4N2 (11742367_at) / RFU PRRT2 (11749266_a_at) / Fold change /veh PRRT2 (11749266_a_at) / RFU SNX32 (11753110_a_at) / Fold change /veh SNX32 (11753110_a_at) / RFU CDHR5 (11726645_a_at) / Fold change /veh CDHR5 (11726645_a_at) / RFU RCAN1 (11760418_a_at) / Fold change /veh RCAN1 (11760418_a_at) / RFU FAM167A (11723789_a_at) / Fold change /veh FAM167A (11723789_a_at) / RFU FAM26E (11764081_at) / Fold change /veh FAM26E (11764081_at) / RFU ISYNA1 (11749810_s_at) / Fold change /veh ISYNA1 (11749810_s_at) / RFU ACY1 (11761880_at) / Fold change /veh ACY1 (11761880_at) / RFU 11764098_at / Fold change /veh 11764098_at / RFU SAMD14 (11745864_x_at) / Fold change /veh SAMD14 (11745864_x_at) / RFU NPB (11741838_a_at) / Fold change /veh NPB (11741838_a_at) / RFU TMPRSS6 (11731388_a_at) / Fold change /veh TMPRSS6 (11731388_a_at) / RFU KRTAP10-2 (11738614_at) / Fold change /veh KRTAP10-2 (11738614_at) / RFU ARHGAP8 /// PRR5-ARHGAP8 (11727945_x_at) / Fold change /veh ARHGAP8 /// PRR5-ARHGAP8 (11727945_x_at) / RFU KRTAP5-7 /// NADSYN1 (11734609_at) / Fold change /veh KRTAP5-7 /// NADSYN1 (11734609_at) / RFU RASL12 (11751679_a_at) / Fold change /veh RASL12 (11751679_a_at) / RFU CDKN2B (11736163_a_at) / Fold change /veh CDKN2B (11736163_a_at) / RFU PRF1 (11729649_at) / Fold change /veh PRF1 (11729649_at) / RFU, ZNF638 /// ZNF638-IT1 / Fold change vs veh, ZNF638 /// ZNF638-IT1 / RFU, PANK3 / Fold change vs veh, PANK3 / RFU, SH3YL1 / Fold change vs veh, SH3YL1 / RFU, ZEB2 / Fold change vs veh, ZEB2 / RFU, NRIP1 / Fold change vs veh, NRIP1 / RFU, PTTG1IP / Fold change vs veh, PTTG1IP / RFU, CAPN2 / Fold change vs veh, CAPN2 / RFU, MED14 / Fold change vs veh, MED14 / RFU, SNORA58 / Fold change vs veh, SNORA58 / RFU, C1orf63 / Fold change vs veh, C1orf63 / RFU, LRRFIP1 / Fold change vs veh, LRRFIP1 / RFU, NDUFAF7 / Fold change vs veh, NDUFAF7 / RFU, SLC12A2 / Fold change vs veh, SLC12A2 / RFU, IBTK / Fold change vs veh, IBTK / RFU, ESF1 / Fold change vs veh, ESF1 / Fold change vs veh, TMEM50B / RFU, TAOK1 / Fold change vs veh, TAOK1 / RFU, ACBD3 / Fold change vs veh, ACBD3 / RFU, TMA16 / Fold change vs veh, TMA16 / RFU, RWDD3 / Fold change vs veh, RWDD3 / RFU, BCAT1 / Fold change vs veh, BCAT1 / RFU, EDEM3 / Fold change vs veh, EDEM3 / RFU, TMEM33 / Fold change vs veh, TMEM33 / RFU, WDR75 / Fold change vs veh, WDR75 / RFU, AHCTF1 / Fold change vs veh, AHCTF1 / RFU, TFRC / Fold change vs veh, TFRC / RFU, ZDHHC17 / Fold change vs veh, ZDHHC17 / RFU, NOM1 / Fold change vs veh, NOM1 / RFU, ARL8B / Fold change vs veh, ARL8B / RFU, ZBTB11 / Fold change vs veh, ZBTB11 / RFU, TAMM41 / Fold change vs veh, TAMM41 / RFU, KIAA1704 /// LOC100996395 / Fold change vs veh, KIAA1704 /// LOC100996395 / RFU, ING1 / Fold change vs veh, ING1 / RFU, TRMT61B / Fold change vs veh, TRMT61B / RFU, FUBP3 / Fold change vs veh, FUBP3 / RFU, TP53 / Fold change vs veh, TP53 / RFU, TNKS2 / Fold change vs veh, TNKS2 / RFU, ZFP14 / Fold change vs veh, ZFP14 / RFU, ACTR2 / Fold change vs veh, ACTR2 / RFU, PPP3R1 / Fold change vs veh, PPP3R1 / RFU, PIK3R1 / Fold change vs veh, PIK3R1 / RFU, HNRNPA1 / Fold change vs veh, HNRNPA1 / RFU, RNF170 / Fold change vs veh, RNF170 / RFU, ZNF28 / Fold change vs veh, ZNF28 / RFU, RNGTT / Fold change vs veh, RNGTT / RFU, OGT / Fold change vs veh, OGT / RFU, BRD1 / Fold change vs veh, BRD1 / RFU, MARS / Fold change vs veh, MARS / RFU, ZNF655 / Fold change vs veh, ZNF655 / RFU, FAHD1 / Fold change vs veh, FAHD1 / RFU, BDP1 / Fold change vs veh, BDP1 / RFU, LRRCC1 / Fold change vs veh, LRRCC1 / RFU, ARID1A / Fold change vs veh, ARID1A / RFU, ZNF146 / Fold change vs veh, ZNF146 / RFU, ZNF330 / Fold change vs veh, ZNF330 / RFU, GPN3 / Fold change vs veh, GPN3 / RFU, C9orf123 / Fold change vs veh, C9orf123 / RFU, N4BP2L2 / Fold change vs veh, N4BP2L2 / RFU, ARFIP1 / Fold change vs veh, ARFIP1 / RFU, FAM179B / Fold change vs veh, FAM179B / RFU, BCL10 / Fold change vs veh, BCL10 / RFU, UHRF1BP1L / Fold change vs veh, UHRF1BP1L / RFU, BET1 / Fold change vs veh, BET1 / RFU, CNOT2 / Fold change vs veh, CNOT2 / RFU, ZNF268 / Fold change vs veh, ZNF268 / Fold change vs veh, ZNF507 / RFU, DGCR2 / Fold change vs veh, DGCR2 / RFU, WDSUB1 / Fold change vs veh, WDSUB1 / Fold change vs veh, HSP90B1 /// MIR3652 / RFU, ADSS / Fold change vs veh, ADSS / RFU, GK / Fold change vs veh, GK / RFU, ZNF148 / Fold change vs veh, ZNF148 / RFU, TAF9 / Fold change vs veh, TAF9 / RFU, SLC1A5 / Fold change vs veh, SLC1A5 / RFU, SLMO2 / Fold change vs veh, SLMO2 / RFU, ABCC4 / Fold change vs veh, ABCC4 / RFU, LOC101060439 /// RAP1B / Fold change vs veh, LOC101060439 /// RAP1B / RFU, RFX7 / Fold change vs veh, RFX7 / RFU, GTPBP10 / Fold change vs veh, GTPBP10 / RFU, CNEP1R1 / Fold change vs veh, CNEP1R1 / RFU, BIVM-ERCC5 /// ERCC5 / Fold change vs veh, BIVM-ERCC5 /// ERCC5 / RFU, ILF3 / Fold change vs veh, ILF3 / RFU 11762660_at / Fold change /veh 11762660_at / RFU VCAN (11757783_s_at) / Fold change /veh VCAN (11757783_s_at) / RFU DDX43 (11728927_at) / Fold change /veh DDX43 (11728927_at) / RFU KRT8 (11758188_x_at) / Fold change /veh KRT8 (11758188_x_at) / RFU NKD1 (11759106_at) / Fold change /veh NKD1 (11759106_at) / RFU SRD5A1 (11742802_a_at) / Fold change /veh SRD5A1 (11742802_a_at) / RFU TPSAB1 /// TPSB2 (11721975_s_at) / Fold change /veh TPSAB1 /// TPSB2 (11721975_s_at) / RFU GSTM3 (11746129_a_at) / Fold change /veh GSTM3 (11746129_a_at) / RFU IL23R (11737362_x_at) / Fold change /veh IL23R (11737362_x_at) / RFU TMEM51 (11727254_a_at) / Fold change /veh TMEM51 (11727254_a_at) / RFU PIWIL2 (11732686_x_at) / Fold change /veh PIWIL2 (11732686_x_at) / RFU ORM1 (11744905_x_at) / Fold change /veh ORM1 (11744905_x_at) / RFU CCDC152 (11743942_at) / Fold change /veh CCDC152 (11743942_at) / RFU ECM1 (11717891_a_at) / Fold change /veh ECM1 (11717891_a_at) / RFU IL23R (11748794_a_at) / Fold change /veh IL23R (11748794_a_at) / RFU TNFAIP8L3 (11732012_x_at) / Fold change /veh TNFAIP8L3 (11732012_x_at) / RFU MBOAT4 (11741988_at) / Fold change /veh MBOAT4 (11741988_at) / RFU 11764193_at / Fold change /veh 11764193_at / RFU TMEM53 (11763286_at) / Fold change /veh TMEM53 (11763286_at) / RFU MAGEB2 (11727129_at) / Fold change /veh MAGEB2 (11727129_at) / RFU TMEM200A (11744735_a_at) / Fold change /veh TMEM200A (11744735_a_at) / RFU CCDC152 (11751479_a_at) / Fold change /veh CCDC152 (11751479_a_at) / RFU FAM211A (11726209_a_at) / Fold change /veh FAM211A (11726209_a_at) / RFU RGS16 (11746705_a_at) / Fold change /veh RGS16 (11746705_a_at) / RFU VCAN (11755009_s_at) / Fold change /veh VCAN (11755009_s_at) / RFU RHOB (11743442_s_at) / Fold change /veh RHOB (11743442_s_at) / RFU RGS16 (11720943_a_at) / Fold change /veh RGS16 (11720943_a_at) / RFU RGS16 (11720944_at) / Fold change /veh RGS16 (11720944_at) / RFU, VPS4B / Fold change vs veh, VPS4B / RFU, CREB1 / Fold change vs veh, CREB1 / RFU, DNAJC13 / Fold change vs veh, DNAJC13 / RFU, GNAQ / Fold change vs veh, GNAQ / RFU, CDK5R1 / Fold change vs veh, CDK5R1 / RFU, ZRANB3 / Fold change vs veh, ZRANB3 / RFU, CUL4A / Fold change vs veh, CUL4A / RFU, CCNY / Fold change vs veh, CCNY / RFU, UFL1 / Fold change vs veh, UFL1 / RFU, COG3 / Fold change vs veh, COG3 / RFU, DIAPH2 / Fold change vs veh, DIAPH2 / RFU, SKA2 / Fold change vs veh, SKA2 / RFU, AFF3 / Fold change vs veh, AFF3 / RFU, LMF1 / Fold change vs veh, LMF1 / RFU, IPO11 / Fold change vs veh, IPO11 / RFU, DFFB / Fold change vs veh, DFFB / RFU, FOXP1 / Fold change vs veh, FOXP1 / RFU, CARD8 / Fold change vs veh, CARD8 / RFU, STRN3 / Fold change vs veh, STRN3 / RFU, ADK / Fold change vs veh, ADK / RFU, RASSF2 / Fold change vs veh, RASSF2 / RFU, WIPF1 / Fold change vs veh, WIPF1 / RFU, LARP1B / Fold change vs veh, LARP1B / RFU, RASA1 / Fold change vs veh, RASA1 / RFU, RB1 / Fold change vs veh, RB1 / RFU, PPFIA1 / Fold change vs veh, PPFIA1 / RFU, MAT2A / Fold change vs veh, MAT2A / RFU, CCT5 / Fold change vs veh, CCT5 / RFU, WDR92 / Fold change vs veh, WDR92 / RFU, CUX1 / Fold change vs veh, CUX1 / RFU, TTC7A / Fold change vs veh, TTC7A / RFU, TMEM135 / Fold change vs veh, TMEM135 / RFU, DEPTOR / Fold change vs veh, DEPTOR / RFU, CPM / Fold change vs veh, CPM / RFU, DNAJB6 / Fold change vs veh, DNAJB6 / RFU, CACNA2D3 / Fold change vs veh, CACNA2D3 / RFU, DTX4 / Fold change vs veh, DTX4 / RFU, TFCP2 / Fold change vs veh, TFCP2 / RFU, GMCL1 /// GMCL1P1 / Fold change vs veh, GMCL1 /// GMCL1P1 / RFU, AEBP2 / Fold change vs veh, AEBP2 / RFU, SNHG1 /// SNORD22 /// SNORD25 /// SNORD26 /// SNORD27 /// SNORD28 /// SNORD29 /// SNORD31 / Fold change vs veh, SNHG1 /// SNORD22 /// SNORD25 /// SNORD26 /// SNORD27 /// SNORD28 /// SNORD29 /// SNORD31 / Fold change (Aza/veh), C12orf56 (ProbeSet 11735607_a_at) / Fold change (ACY-1035/veh), C12orf56 (ProbeSet 11735607_a_at) / Fold change (Aza/veh), FGFR1OP (ProbeSet 11751329_s_at) / Fold change (ACY-1035/veh), FGFR1OP (ProbeSet 11751329_s_at) / Fold change (Aza/veh), VPS36 (ProbeSet 11739960_a_at) / Fold change (ACY-1035/veh), VPS36 (ProbeSet 11739960_a_at) / RFU SYPL1 (11715823_x_at) / Fold change /veh SYPL1 (11715823_x_at) / RFU IGFBP7 (11715501_s_at) / Fold change /veh IGFBP7 (11715501_s_at) / RFU REEP3 (11722064_at) / Fold change /veh REEP3 (11722064_at) / RFU IGLL1 (11728026_x_at) / Fold change /veh IGLL1 (11728026_x_at): dose or concentration left out as unconfirmed
Conditions: MV-4-11 cells, 48 hours

With Nc1ccc(-c2cccs2)cc1NC(=O)c1ccc2c(c1)cc(C1CC1)n2CCN1CCOCC1 [ACY-1035] the “RFU LRRC4B (11730491_at)” value was 28.30 RFU.
